Tests used:
Settings in all cases: 48 h
NOMO1 [1] = assay: cell viability relative to DMSO control; higher = less cytotoxic
Outline: (§1)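 Viability, reported as a per-plate percentage of DMSO wells with cell-free wells as background, came from CellTiter-Glo One luminescence. Reading took place after 48 h at 37°C. Before that, NOMO1 or SEM (500 cells/well) or P12-Ichikawa (1000 cells/well) leukemia cells, adapted for at least four passages in each medium, were seeded in 1536-well plates (5 μl) and pin-dosed with library compounds in DMSO, 47 μM to 0.79 nM over 11 threefold points.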

P12-Ichikawa [2] = assay: as above
Outline: as §1

SEM cells [3] = assay: as above
Outline: as §1

NOMO1 [4] = assay: AUC of viability dose-response curve (% viability x log10 dose units); higher = less sensitive
Outline: (§2)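 Seeding of medium-adapted leukemia cells was at 500 or 1000 cells/well in 1536-well plates, followed by 48 h at 37°C with library compounds in DMSO at 11 threefold doses from 47 μM to 0.79 nM. CellTiter-Glo One luminescence was normalised per plate to DMSO and cell-free wells and fitted as a four-parameter log-logistic function of log10 dose. Area under the curve was integrated by trapezoidal rule, with curves exceeding full viability scaled and curves failing quality control removed.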

P12-Ichikawa [5] = assay: as above
Outline: as §2

SEM cells [6] = assay: as above
Outline: as §2

COc1cc(OC)c(NC(=O)Nc2cc(C)on2)cc1Cl
cell viability [%]
Settings	NOMO1 [1]	P12-Ichikawa [2]	SEM cells [3]
HPLM + 10% dialyzed FBS, 0.000781 µM	97.6	94.9	95.9
HPLM + 10% dialyzed FBS, 0.00234 µM	96.4	98.8	94.2
HPLM + 10% dialyzed FBS, 0.00702 µM	100	110	104
HPLM + 10% dialyzed FBS, 0.0211 µM	106	99.6	98.4
HPLM + 10% dialyzed FBS, 0.0632 µM	106	101	94.6
HPLM + 10% dialyzed FBS, 0.19 µM	84.4	106	99.8
HPLM + 10% dialyzed FBS, 0.569 µM	119	102	97.3
HPLM + 10% dialyzed FBS, 1.71 µM	114	106	112
HPLM + 10% dialyzed FBS, 5.12 µM	100	107	100
HPLM + 10% dialyzed FBS, 15.4 µM	105	110	97.5
HPLM + 10% dialyzed FBS, 46.1 µM	96.9	106	71.3
RPMI 5 mM glucose + 10% FBS, 0.000781 µM	83.5	90.3	74.3
RPMI 5 mM glucose + 10% FBS, 0.00234 µM	96.7	95.9	79.6
RPMI 5 mM glucose + 10% FBS, 0.00702 µM	85.2	96.8	90.9
RPMI 5 mM glucose + 10% FBS, 0.0211 µM	92.7	98.2	89.6
RPMI 5 mM glucose + 10% FBS, 0.0632 µM	93.8	108	82
RPMI 5 mM glucose + 10% FBS, 0.19 µM	97.9	104	86.5
RPMI 5 mM glucose + 10% FBS, 0.569 µM	93.9	95.5	91.3
RPMI 5 mM glucose + 10% FBS, 1.71 µM	91	106	92
RPMI 5 mM glucose + 10% FBS, 5.12 µM	90.1	107	76.6
RPMI 5 mM glucose + 10% FBS, 15.4 µM	88.7	102	80.6
RPMI 5 mM glucose + 10% FBS, 46.1 µM	99.5	101	63.8
RPMI 5 mM glucose + 10% dialyzed FBS, 0.000781 µM	86.8	98.1	84.8
RPMI 5 mM glucose + 10% dialyzed FBS, 0.00234 µM	83.8	90.7	100
RPMI 5 mM glucose + 10% dialyzed FBS, 0.00702 µM	81.3	97	90.3
RPMI 5 mM glucose + 10% dialyzed FBS, 0.0211 µM	85.6	97.8	94.5
RPMI 5 mM glucose + 10% dialyzed FBS, 0.0632 µM	97.3	96.5	105
RPMI 5 mM glucose + 10% dialyzed FBS, 0.19 µM	89.4	96.5	108
RPMI 5 mM glucose + 10% dialyzed FBS, 0.569 µM	98	106	96.1
RPMI 5 mM glucose + 10% dialyzed FBS, 1.71 µM	79.7	102	89.7
RPMI 5 mM glucose + 10% dialyzed FBS, 5.12 µM	83	96.2	101
RPMI 5 mM glucose + 10% dialyzed FBS, 15.4 µM	88.1	91.7	91.5
RPMI 5 mM glucose + 10% dialyzed FBS, 46.1 µM	88.3	92	71.1

AUC of viability dose-response curve
Settings	NOMO1 [4]	P12-Ichikawa [5]	SEM cells [6]
HPLM + 10% dialyzed FBS	464	463	467
RPMI 5 mM glucose + 10% FBS	442	465	397
RPMI 5 mM glucose + 10% dialyzed FBS	417	463	453

CN(C)CC/C=C1/c2ccccc2COc2ccc(CC(=O)O)cc21
cell viability [%]
Settings	NOMO1 [1]	P12-Ichikawa [2]	SEM cells [3]
HPLM + 10% dialyzed FBS, 0.000781 µM	–	118	85.4
HPLM + 10% dialyzed FBS, 0.00234 µM	–	112	81.8
HPLM + 10% dialyzed FBS, 0.00702 µM	–	116	108
HPLM + 10% dialyzed FBS, 0.0211 µM	–	120	120
HPLM + 10% dialyzed FBS, 0.0632 µM	–	125	113
HPLM + 10% dialyzed FBS, 0.19 µM	–	125	130
HPLM + 10% dialyzed FBS, 0.569 µM	–	122	132
HPLM + 10% dialyzed FBS, 1.71 µM	–	126	124
HPLM + 10% dialyzed FBS, 5.12 µM	–	129	101
HPLM + 10% dialyzed FBS, 15.4 µM	–	125	141
HPLM + 10% dialyzed FBS, 46.1 µM	–	131	126
RPMI 5 mM glucose + 10% FBS, 0.000781 µM	112	–	123
RPMI 5 mM glucose + 10% FBS, 0.00234 µM	115	–	106
RPMI 5 mM glucose + 10% FBS, 0.00702 µM	120	–	124
RPMI 5 mM glucose + 10% FBS, 0.0211 µM	128	–	127
RPMI 5 mM glucose + 10% FBS, 0.0632 µM	153	–	136
RPMI 5 mM glucose + 10% FBS, 0.19 µM	131	–	132
RPMI 5 mM glucose + 10% FBS, 0.569 µM	148	–	143
RPMI 5 mM glucose + 10% FBS, 1.71 µM	166	–	144
RPMI 5 mM glucose + 10% FBS, 5.12 µM	153	–	121
RPMI 5 mM glucose + 10% FBS, 15.4 µM	149	–	148
RPMI 5 mM glucose + 10% FBS, 46.1 µM	147	–	142
RPMI 5 mM glucose + 10% dialyzed FBS, 0.000781 µM	–	122	–
RPMI 5 mM glucose + 10% dialyzed FBS, 0.00234 µM	–	114	–
RPMI 5 mM glucose + 10% dialyzed FBS, 0.00702 µM	–	122	–
RPMI 5 mM glucose + 10% dialyzed FBS, 0.0211 µM	–	141	–
RPMI 5 mM glucose + 10% dialyzed FBS, 0.0632 µM	–	140	–
RPMI 5 mM glucose + 10% dialyzed FBS, 0.19 µM	–	136	–
RPMI 5 mM glucose + 10% dialyzed FBS, 0.569 µM	–	146	–
RPMI 5 mM glucose + 10% dialyzed FBS, 1.71 µM	–	135	–
RPMI 5 mM glucose + 10% dialyzed FBS, 5.12 µM	–	134	–
RPMI 5 mM glucose + 10% dialyzed FBS, 15.4 µM	–	136	–
RPMI 5 mM glucose + 10% dialyzed FBS, 46.1 µM	–	138	–

AUC of viability dose-response curve
Settings	NOMO1 [4]	P12-Ichikawa [5]	SEM cells [6]
HPLM + 10% dialyzed FBS	466	462	448
RPMI 5 mM glucose + 10% FBS	437	467	454
RPMI 5 mM glucose + 10% dialyzed FBS	453	461	449

NC(=O)c1cccc(N)c1
cell viability [%]
Settings	NOMO1 [1]	P12-Ichikawa [2]	SEM cells [3]
HPLM + 10% dialyzed FBS, 0.000781 µM	116	106	92.8
HPLM + 10% dialyzed FBS, 0.00234 µM	107	105	104
HPLM + 10% dialyzed FBS, 0.00702 µM	119	70.8	38.7
HPLM + 10% dialyzed FBS, 0.0211 µM	114	116	112
HPLM + 10% dialyzed FBS, 0.0632 µM	135	120	116
HPLM + 10% dialyzed FBS, 0.19 µM	134	122	120
HPLM + 10% dialyzed FBS, 0.569 µM	124	117	113
HPLM + 10% dialyzed FBS, 1.71 µM	130	117	129
HPLM + 10% dialyzed FBS, 5.12 µM	126	121	115
HPLM + 10% dialyzed FBS, 15.4 µM	125	111	106
HPLM + 10% dialyzed FBS, 46.1 µM	101	116	118
RPMI 5 mM glucose + 10% FBS, 0.000781 µM	97	101	72.3
RPMI 5 mM glucose + 10% FBS, 0.00234 µM	104	106	106
RPMI 5 mM glucose + 10% FBS, 0.00702 µM	114	67.8	10.3
RPMI 5 mM glucose + 10% FBS, 0.0211 µM	120	121	79.6
RPMI 5 mM glucose + 10% FBS, 0.0632 µM	104	115	84.5
RPMI 5 mM glucose + 10% FBS, 0.19 µM	123	124	97.8
RPMI 5 mM glucose + 10% FBS, 0.569 µM	105	108	82.9
RPMI 5 mM glucose + 10% FBS, 1.71 µM	97.8	117	85.5
RPMI 5 mM glucose + 10% FBS, 5.12 µM	109	120	80.6
RPMI 5 mM glucose + 10% FBS, 15.4 µM	113	117	104
RPMI 5 mM glucose + 10% FBS, 46.1 µM	127	113	81.6
RPMI 5 mM glucose + 10% dialyzed FBS, 0.000781 µM	102	101	79.9
RPMI 5 mM glucose + 10% dialyzed FBS, 0.00234 µM	104	112	115
RPMI 5 mM glucose + 10% dialyzed FBS, 0.00702 µM	114	78.1	27.4
RPMI 5 mM glucose + 10% dialyzed FBS, 0.0211 µM	116	114	95.4
RPMI 5 mM glucose + 10% dialyzed FBS, 0.0632 µM	109	115	102
RPMI 5 mM glucose + 10% dialyzed FBS, 0.19 µM	133	115	98.2
RPMI 5 mM glucose + 10% dialyzed FBS, 0.569 µM	116	124	105
RPMI 5 mM glucose + 10% dialyzed FBS, 1.71 µM	110	120	94.4
RPMI 5 mM glucose + 10% dialyzed FBS, 5.12 µM	112	115	96.3
RPMI 5 mM glucose + 10% dialyzed FBS, 15.4 µM	106	120	117
RPMI 5 mM glucose + 10% dialyzed FBS, 46.1 µM	115	120	99.4

AUC of viability dose-response curve
Settings	NOMO1 [4]	P12-Ichikawa [5]	SEM cells [6]
HPLM + 10% dialyzed FBS	471	452	436
RPMI 5 mM glucose + 10% FBS	454	451	384
RPMI 5 mM glucose + 10% dialyzed FBS	465	454	442

From the supplement of paper PMC11451515
